From patent US11839651B2, “Immunogenic compositions and uses thereof” (INSTITUTE FOR RESEARCH IN BIO-MEDICINE, priority 2015, dated 2023)

System: Tfh cells (via P2X7)
Experiment: Epithelial permeability to ATP: Tfh cell recovery in Peyer's patches after daily gavage
Type: in vivo
Details: wild type mice, two weeks after treatment
Description: In order to assess epithelial permeability to ATP in the small intestine, mice were gavaged daily with ATPγS (a non-hydrolysable analogue of ATP). As Tfh cells are sensitive to extracellular ATP via P2X7 the inventors analysed Tfh cell recovery in Peyer's patches two weeks after treatment.

Nc1ncnc2c1ncn2[C@@H]1O[C@H](COP(=O)(O)OP(=O)(O)OP(O)(O)=S)[C@@H](O)[C@H]1O [ATPγS]
Tfh cells in Peyer's patches: significant reduction
